From PubChem BioAssay (NCI)
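Protocol summary: plate cells (96-well), add compound at 5 concentrations, incubate 48 h, interpolate endpoints linearly. GI50: concentration for 50% inhibition of growth. TGI marks complete inhibition of growth.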

Assays:
Assay in all cases: NCI-60 cell line screen, 48 h
BT-549 breast = tested on: BT-549 breast
DU-145 prostate = tested on: DU-145 prostate
HCT-116 colon = tested on: HCT-116 colon
HOP-62 NSCLC = tested on: HOP-62 NSCLC
HOP-92 NSCLC = tested on: HOP-92 NSCLC
MALME-3M melanoma = tested on: MALME-3M melanoma
NCI-H226 lung = tested on: NCI-H226 lung
OVCAR-5 ovarian = tested on: OVCAR-5 ovarian
RPMI-8226 leukemia = tested on: RPMI-8226 leukemia
SNB-19 CNS = tested on: SNB-19 CNS

SMILES	TGI (BT-549 breast) [µM]	TGI (DU-145 prostate) [µM]	TGI (HCT-116 colon) [µM]	TGI (HOP-62 NSCLC) [µM]	TGI (HOP-92 NSCLC) [µM]	TGI (MALME-3M melanoma) [µM]	TGI (NCI-H226 lung) [µM]	TGI (OVCAR-5 ovarian) [µM]	TGI (RPMI-8226 leukemia) [µM]	TGI (SNB-19 CNS) [µM]	GI50 (BT-549 breast) [nM]	GI50 (DU-145 prostate) [nM]	GI50 (HCT-116 colon) [nM]	GI50 (HOP-62 NSCLC) [µM]	GI50 (HOP-92 NSCLC) [nM]	GI50 (MALME-3M melanoma) [nM]	GI50 (NCI-H226 lung) [nM]	GI50 (OVCAR-5 ovarian) [nM]	GI50 (RPMI-8226 leukemia) [nM]	GI50 (SNB-19 CNS) [nM]
CC(=O)NNc1nc(C)c(C(=O)NNC(=O)C(=O)Nc2nc3ccc([N+](=O)[O-])cc3s2)s1	> 100	> 100	> 100	> 100	> 100	> 100	> 100	> 100	> 80.5	> 100	–	–	–	–	–	–	–	–	–	–
Cc1cc(Nc2nc(SCc3ccc(C(=O)Nc4ccc(F)cc4N)cc3)nn3cccc23)n[nH]1	7	> 100	20.4	> 100	24.3	25.7	20.5	> 100	3.72	> 100	296	461	494	0.556	3680	1830	2700	657	514	536
CCSc1nc(N)c2cn[nH]c2n1	> 100	> 100	> 100	> 100	93.3	67	57.1	63.1	49.1	> 100	52100	46200	30500	49	1370	31200	16900	21800	21300	39200
COc1ccccc1/C=C/C(=O)/C=C/c1ccccc1O	3.01	2.63	0.379	6.63	6.08	5.98	4.12	4.39	0.401	2.94	1390	1020	174	3.06	1780	1820	1710	2160	164	1480
COc1ccc(-c2nnc(N3CCN(C(=O)CN4CCN(c5ccc(OC)cc5)CC4)CC3)nc2-c2ccc(OC)cc2)cc1	24	26.5	3.11	44	35.2	23.1	34.5	53.1	6.5	46.4	3530	12200	1710	16.5	16100	3170	5530	27600	2370	20700
O=C(O)CCC(NC(=S)S)C(=O)O.[Na+].[Zn+2] (stereo unspecified)	> 50	> 50	> 50	> 50	> 50	> 50	> 50	> 50	> 50	> 50	> 50000	> 50000	> 50000	> 50	> 50000	> 50000	> 50000	> 50000	> 50000	> 50000
C[C@H](Cn1ncnn1)Nc1ncc2cc(Oc3ccc(F)cc3F)c(=O)n(C)c2n1	> 25	> 25	> 25	> 25	> 25	> 25	> 25	> 25	> 25	> 25	> 25000	> 25000	> 25000	> 25	3960	> 25000	> 25000	> 25000	> 25000	> 25000
CCCCCCCCCCCC[n+]1ccccc1 (tested in a mixture with another compound)	1.06	9.88	2.62	3.59	2.43	2.77	10.4	5.85	1.52	3.48	268	1500	548	1.15	290	633	1720	1030	230	1290
Cc1ccccc1Nc1nc2c(s1)C(=O)c1ccccc1C2=O	6.57	20	6.66	30.2	25.1	28.2	32.8	38	18	13.2	–	–	–	–	–	–	–	–	–	–
O=C(c1ccc2ccccc2c1)c1c(C(F)(F)F)n([O-])c2ccc(Cl)cc2[n+]1=O	2.99	2.79	2.33	3.46	2.03	3.2	3.56	3.58	1.66	3.07	1600	1470	1000	1.86	518	1590	1820	1870	373	1690
COc1ccccc1-c1cc(=O)c2ccc(C)nc2[nH]1	> 100	> 100	> 100	> 100	> 100	> 100	> 100	> 100	> 100	> 100	–	–	37600	–	–	–	–	–	–	–
